Experimental data reported in publication PMC10580953, “In vitro and intracellular activities of novel thiopeptide derivatives against macrolide-susceptible and macrolide-resistant Mycobacterium avium complex” (Microbiology Spectrum, 2023).
In brackets after ≈: the same amount, converted by molar mass. Entries after “also recorded” stand apart in the source; their conditions may differ.

Tests used:
MAC in murine BMDMs [1] = system: MAC in murine BMDMs; set-up: method as in PMID 33519787; details: cited from earlier work
[2] = system: macrolide-resistant M. intracellulare; assay: MIC by REMA, macrolide-resistant M. intracellulare strains; details: Mycobacterium intracellulare
Description: (§4) Reference strains were purchased from the American Type Culture Collection (ATCC; Manassas, VA, USA). All clinical MAC isolates, including macrolide-susceptible and macrolide-resistant strains, were kindly provided by Samsung Medical Center (SMC; Seoul, South Korea) and Asan Medical Center (AMC; Seoul, South Korea). All strains were cultivated in Middlebrook 7H9 liquid broth (Difco Laboratories, Detroit, MI) supplemented with 10% oleic acid-albumin-dextrose-catalase (OADC) or plated on Middlebrook 7H10 agar (Difco Laboratories) with 10% OADC enrichment at 37°C.
(§5) The MICs of all the reagents were determined using the REMA method based on guidelines by the Clinical and Laboratory Standards Institute ([57]). […] The cultures were diluted to an OD600 = 0.001 in 7H9 broth with 5% OADC. […] Two controls (broth only and bacteria only) were incubated to check for other contamination (broth only) and the growth of tested bacteria (bacteria only).
(§6) PCR amplification and sequencing for CLR were based on 23S rRNA. The primers and PCR conditions were as reported previously ([59]). PCR was carried out in a final volume of 20 µL and contained EzPCR Basic 5 × premix (ELPIS, Daejeon, South Korea), 13 µL of sterile dH2O, 1 µL of each forward and reverse primer, and 1 µL of template DNA. The PCR products were run on 1% agarose gels and purified using a NEXprep Gel/PCR Purification Mini Kit (Geneslabs, Gyeonggi, South Korea) for DNA cleanup. Purified PCR products were sequenced by Sanger sequencing in Bionics (Seoul, South Korea) with their gene-specific forward and reverse primers. Sequences obtained from Bionics were subjected to BLAST searches to compare nucleotide sequences with reference strains.

[3] = system: macrolide-resistant M. avium clinical isolates in BMDMs; assay: Intracellular activity in BMDMs, macrolide-resistant M. avium clinical isolates; type: cell-based, Mycobacterium avium; details: five macrolide-resistant M. avium clinical isolates, 10 µg/mL, 72 h (Fig. 5)
Description: (§1) BMDMs were obtained from 6-week-old female BALB/c mice. Bone marrow cells were differentiated into BMDMs using Dulbecco’s Modified Eagle Medium (Biowest) supplemented with 10% fetal bovine serum (Biowest) and 10% L929 cell supernatant as previously described ([58]).
(§2) BMDMs were seeded at 4 × 10^5 cells/mL in a 48-well plate and incubated overnight at 37°C. MAC strains were infected at a multiplicity of infection of 3 for 4 h and washed with DPBS twice. The cells were then cultured in the absence or presence of drugs in triplicate wells for 72 h. After incubation, the cells were lysed with 0.05% Triton X-100, and the cell lysates serially diluted with DPBS were spotted on 7H10 agar plates supplemented with OADC to count the number of viable bacteria. Colonies were enumerated after 7 d of incubation at 37°C, and the values are reported as the mean CFU ± standard deviation (SD) per mL. All experiments were repeated at least three times independently.

[4] = Aqueous kinetic solubility; type: physicochemical; details: for solubility at 2 h: aqueous buffer, kinetic from dmso stock, free form, deionized water pH 7.4, 1% DMSO
Description: The aqueous kinetic solubility was determined by preparing a 20 mM DMSO stock solution of test compounds and incubating an aliquot of this solution in deionized water at pH 7.4 to set a 1% final concentration of DMSO. In the case of HCl salt compounds, 1–2 mg of compound was weighed and dissolved in deionized water to yield an approximately 10 mg/mL solution. After initial mixing using brief vortexing and sonication, samples were equilibrated by shaking for 2 h at room temperature. Suspensions or solutions with visible particles were filtered through 0.22 µm PVDF membrane filters. The dissolved drug concentration was analyzed using UPLC-MS. To determine the solubility of the HCl salt, 1 mg of compound was weighed into a 2 mL glass tube, and a fixed volume of deionized water was added to yield an approximately 10 mg/mL solution. The solution was equilibrated by shaking for 24 h at room temperature. After equilibration, the vials were visually examined. If a clear solution was obtained, solubility was reported as >mg/mL.

[5] = system: macrolide-resistant M. avium; assay: MIC by REMA, macrolide-resistant M. avium strains
Description: as §4, §5, §6

M. avium = assay: MIC by resazurin microtiter assay (REMA), M. avium strains
Description: (§7) Reference strains were purchased from the American Type Culture Collection (ATCC; Manassas, VA, USA). […] All strains were cultivated in Middlebrook 7H9 liquid broth (Difco Laboratories, Detroit, MI) supplemented with 10% oleic acid-albumin-dextrose-catalase (OADC) or plated on Middlebrook 7H10 agar (Difco Laboratories) with 10% OADC enrichment at 37°C.
as §5

MAC in murine BMDMs [6] = assay: Intracellular anti-MAC activity in infected BMDMs, summary statements for MAC; type: cell-based, Mycobacterium avium complex; details: for intracellular growth of MAC in BMDMs: MAC-infected BMDMs, 72 h (Fig. 2)
Description: as §1, §2

[7] = system: M. intracellulare ATCC 13950; details: synergism FICI ≤0.5, additive 0.5 < FICI ≤ 1, indifferent 1 < FICI ≤ 4, antagonistic FICI >4
Description: (§3) To evaluate the efficacy of the combination of agent A and agent B, a fractional inhibitory concentration (FIC) index was calculated as follows: FICI = (FIC of agent A) + (FIC of agent B) = (MIC of agent A in combination/MIC of agent A alone) + (MIC of agent B in combination/MIC of agent B alone). Synergism is defined as FICI ≤0.5, additive as 0.5 < FICI ≤ 1, indifferent as 1 < FICI ≤ 4, and antagonistic as FICI >4. The cultured bacteria were diluted to a 0.005 OD600 in 7H9 broth containing 5% OADC, and the antimicrobial agents were prepared by serial dilutions to a final concentration of 0.03–4 μg/mL. For the evaluation of inhibitory concentrations, the plates were incubated at 37°C for 5–7 d. Then, MIC values were assessed by REMA, and the FICI was calculated.

M. avium ATCC 700898 = details: synergism FICI ≤0.5, additive 0.5 < FICI ≤ 1, indifferent 1 < FICI ≤ 4, antagonistic FICI >4
Description: as §3

M. intracellulare = assay: MIC by resazurin microtiter assay (REMA), M. intracellulare strains
Description: as §7, §5

BMDMs = assay: Cell cytotoxicity test (trypan blue cell counting); type: cell-based, BALB/c mice; details: 20 µg/mL, overnight incubation (Fig. S4)
Description: as §1
Cell viability was evaluated using trypan blue cell counting. BMDMs were plated at 4 × 10^5 cells/mL along with antibiotics in a 48-well cell culture plate. The antibiotics were serially diluted twofold from the highest concentration of 20 μg/mL to 1.25 μg/mL. After overnight incubation at 37°C with 5% CO2, BMDMs were isolated, and viable cells were counted using trypan blue dye exclusion. Cell viability was calculated as a percentage compared to the control. All experiments were repeated at least three times independently.

M. avium in murine BMDMs = assay: Intracellular anti-MAC activity in infected BMDMs, M. avium; type: cell-based, Mycobacterium avium; details: M. avium ATCC 700898, 10 µg/mL, 72 hr
Description: as §1, §2

MAC strains = assay: MIC by REMA, summary statements for MAC strains; type: cell-based, Mycobacterium avium complex; details: Mycobacterium avium; range over tested MAC strains (Table 2); read-out: in vitro MIC for the tested MAC strains
[8] = system: M. intracellulare in murine BMDMs; assay: Intracellular anti-MAC activity in infected BMDMs, M. intracellulare; type: cell-based, Mycobacterium intracellulare; details: M. intracellulare ATCC 13950, 10 µg/mL, 72 hr
Description: as §1, §2

[9] = Mycobacterium avium, ATCC700898
[10] = Mycobacterium intracellulare, ATCC13950, M. intracellulare (ATCC 13950), reference strain
[11] = Mycobacterium intracellulare, M. intracellulare (SMC#8)
[12] = Mycobacterium intracellulare, M. intracellulare (SMC#12)
[13] = Mycobacterium intracellulare, M. intracellulare (SMC#699)

For `CO[C@H]1/C=C/O[C@@]2(C)Oc3c(C)c(O)c4c(O)c(c(/C=N/N5CCN(C)CC5)c(O)c4c3C2=O)NC(=O)/C(C)=C\C=C\[C@H](C)[C@H](O)[C@@H](C)[C@@H](O)[C@@H](C)[C@H](OC(C)=O)[C@@H]1C` [rifampicin], the “intracellular activity against MAC” value (MAC in murine BMDMs [1]) is given as “little intracellular activity”.

`C/C=C1\NC(=O)[C@H]([C@@H](C)O)NC(=O)c2csc(n2)-c2ccc(-c3nc(-c4nc(C(=O)NC5(C(=O)NCCCN6CCOCC6)CC5)cs4)cs3)nc2-c2csc(n2)[C@H]([C@@H](C)O)NC(=O)c2csc(n2)[C@H](C(C)C)NC(=O)c2csc1n2` [AJ-037] showed an MIC ([2]; M. intracellulare (AMC#24), 23S rRNA A2058/A2059 G/A) of 0.125 µg/mL (≈ 0.103 µM), an MIC ([2]; M. intracellulare (SMC#104), 23S rRNA A2058/A2059 G/A) of 0.125 µg/mL (≈ 0.103 µM) and an MIC ([2]; M. intracellulare (SMC#414), 23S rRNA A2058/A2059 A/G) of 0.125 µg/mL (≈ 0.103 µM). The “intracellular bacterial growth in BMDMs” value [3] was “notably inhibited intracellular bacterial growth”, the solubility at 2 h [4] was 103 µg/mL (≈ 84.9 µM) and the “Fold increase, HCl salt” value ([4]; solubility of HCl salt compared to MP2) was “×71,428 fold”. The “Fold increase, Free form” value ([4]; solubility of free form compared to MP2) was “×1,471 fold”, the solubility ([4]; thermodynamic from solid, HCl salt in deionized water) was 5000 µg/mL and the MIC ([5]; M. avium (SMC#1216), 23S rRNA A2058/A2059 C/A) was 0.125 µg/mL (≈ 0.103 µM). For the same compound, the MIC ([5]; Mycobacterium avium) was 0.125 µg/mL (≈ 0.103 µM), the MIC ([5]; Mycobacterium avium, M. avium (SMC#420), 23S rRNA A2058/A2059 C/A) was 0.5 µg/mL (≈ 0.412 µM) and the MIC ([5]; Mycobacterium avium, M. avium (SMC#422), 23S rRNA A2058/A2059 A/G) was 1 µg/mL (≈ 0.824 µM). It also gave an MIC ([5]; Mycobacterium avium, M. avium (SMC#1213), 23S rRNA A2058/A2059 T/A) of 0.5 µg/mL (≈ 0.412 µM), an MIC (M. avium; M. avium (SMC#7)) of 0.25 µg/mL (≈ 0.206 µM) and an MIC (M. avium; Mycobacterium avium) of 0.25 µg/mL (≈ 0.206 µM). For the same compound, the MIC (M. avium; [9]) was 0.25 µg/mL (≈ 0.206 µM), the MIC (M. avium; Mycobacterium avium, M. avium (SMC#6)) was 0.125 µg/mL (≈ 0.103 µM) and the MIC (M. avium; Mycobacterium avium, M. avium (SMC#1637)) was 0.125 µg/mL (≈ 0.103 µM). For the same compound, the “intracellular growth of MAC in BMDMs” value (MAC in murine BMDMs [6]) was “remarkably inhibited the intracellular growth of MAC to a similar degree as CLR; also recorded: significantly reduced the number of MAC CFUs inside macrophages”, the “intracellular activity in BMDMs infected with macrolide-resistant MAC clinical isolates” value (MAC in murine BMDMs [6]; macrolide-resistant MAC, 10 µg/mL, 72 h (Fig. 5 and 6)) was “significant decrease in CFUs” and the “drug-drug interaction with CLR” value [7] was “relatively weak but synergistic effect; also recorded: Synergistic effects”. The “drug-drug interaction with CLR” value (M. avium ATCC 700898) was “strongest synergistic effect; also recorded: Synergistic effects”, the MIC (M. intracellulare; M. intracellulare (SMC#9)) was 0.125 µg/mL (≈ 0.103 µM) and the MIC (M. intracellulare; M. intracellulare (SMC#831)) was 0.125 µg/mL (≈ 0.103 µM). The MIC (M. intracellulare; M. intracellulare (SMC#2087)) was 0.125 µg/mL (≈ 0.103 µM), the MIC (M. intracellulare; Mycobacterium intracellulare) was 0.125 µg/mL (≈ 0.103 µM) and the MIC (M. intracellulare; [10]) was 0.25 µg/mL (≈ 0.206 µM). For the same compound, the MIC (M. intracellulare; [11]) was 0.25 µg/mL (≈ 0.206 µM), the MIC (M. intracellulare; [12]) was 0.25 µg/mL (≈ 0.206 µM) and the MIC (M. intracellulare; [13]) was 0.25 µg/mL (≈ 0.206 µM). The Cell viability (BMDMs) was “decreased”.

For `C/C=C(\NC(=O)c1csc(-c2csc(-c3ccc4c(n3)-c3csc(n3)[C@H]([C@@H](C)O)NC(=O)c3csc(n3)[C@H](C(C)C)NC(=O)c3csc(n3)/C(=C/C)NC(=O)[C@H]([C@@H](C)O)NC(=O)c3csc-4n3)n2)n1)C(=O)NCC(C)=O` [MP2, micrococcin P2, reference compound], the “intracellular activity (CFU) in BMDMs” value (M. avium in murine BMDMs) was “ineffective”, the solubility at 2 h [4] was 0.07 µg/mL (≈ 0.0613 µM) and the MIC (MAC strains) was 0.125 to 0.5 µg/mL (≈ 0.109 to 0.438 µM). For the same compound, the MIC (M. avium; M. avium (SMC#6)) was 0.125 µg/mL (≈ 0.109 µM), the MIC (M. avium; M. avium (SMC#7)) was 0.125 µg/mL (≈ 0.109 µM) and the MIC (M. avium; M. avium (SMC#1637)) was 0.125 µg/mL (≈ 0.109 µM). For the same compound, the MIC (M. avium; Mycobacterium avium) was 0.125 µg/mL (≈ 0.109 µM), the MIC (M. avium; [9]) was 0.125 µg/mL (≈ 0.109 µM) and the “intracellular growth of MAC in BMDMs” value (MAC in murine BMDMs [6]) was “completely abrogated”. The MIC (M. intracellulare; [10]) was 0.125 µg/mL (≈ 0.109 µM), the MIC (M. intracellulare; Mycobacterium intracellulare, M. intracellulare (SMC#7)) was 0.125 µg/mL (≈ 0.109 µM) and the MIC (M. intracellulare; [11]) was 0.125 µg/mL (≈ 0.109 µM). For the same compound, the MIC (M. intracellulare; Mycobacterium intracellulare, M. intracellulare (SMC#9)) was 0.125 µg/mL (≈ 0.109 µM), the MIC (M. intracellulare; [12]) was 0.125 µg/mL (≈ 0.109 µM) and the MIC (M. intracellulare; [13]) was 0.125 µg/mL (≈ 0.109 µM). The MIC (M. intracellulare; Mycobacterium intracellulare, M. intracellulare (SMC#831)) was 0.125 µg/mL (≈ 0.109 µM), the MIC (M. intracellulare; Mycobacterium intracellulare, M. intracellulare (SMC#2087)) was 0.125 µg/mL (≈ 0.109 µM) and the “intracellular activity (CFU) in BMDMs” value [8] was “ineffective”. For the same compound, the Cell viability (BMDMs) was “decreased”.
